The subject of this test is NLRP3. The experiment in a line: IL-1β secretion assay in PMA-differentiated, LPS/nigericin-stimulated THP-1 cells (384-well, ELISA read-out). The test is classed as cell-based, human. The method, boiled down:
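Secreted IL-1β quantified by capture ELISA from supernatants of PMA-differentiated THP-1 cells (30K per well). Sequence: LPS 25 ng/mL priming 2 h, compound 1 h, nigericin 2 h; dose-responses normalized between high (LPS plus 5 μM nigericin) and low (LPS alone) controls.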

Where [1] appears, read: Homo sapiens, THP-1, IL-1β secretion, PMA-differentiated THP-1 cells, LPS then nigericin stimulation, ELISA read at 450 nm, read-out: Activity.
[2] abbreviates: Homo sapiens, THP-1, Table 4, IL-1β secretion, LPS/nigericin-stimulated THP-1 cells, read-out: IC50.
Setting [3] is: IL-1β secretion, PMA-differentiated THP-1 cells, LPS then nigericin stimulation, ELISA read at 450 nm, read-out: Activity.
Setting [4] is: Table 4, IL-1β secretion, LPS/nigericin-stimulated THP-1 cells, read-out: IC50.

Where two headings read alike, the source gives them in different places. Where only a bound is given, the exact number is not on record here.

With `N#Cc1c(C(F)(F)F)ccc2c1C1(CC1)CN(CC(=O)Nc1ncc(F)cn1)C2=O` [Example 89, 2-[5-cyano-1-oxo-6-(trifluoromethyl)spiro[3H-isoquinoline-4,1′-cyclopropane]-2-yl]-N-(5-fluoropyrimidin-2-yl)acetamide], the IC50 is less than 10000 nM under setting [1] and 6840 nM under setting [2].
Turning to `O=C(CN1CC2(CC2)c2cc(C3(F)CC3)ccc2C1=O)Nc1ncc(F)cn1` [Example 255, 2-[6-(1-fluorocyclopropyl)-1-oxospiro[3H-isoquinoline-4,1′-cyclopropane]-2-yl]-N-(5-fluoropyrimidin-2-yl)acetamide], the IC50 is, setting by setting: under setting [1], less than 10000 nM; under setting [2], 148 nM.
As for `N#Cc1cnc(NC(=O)CN2C[C@@]3(C[C@@H]3F)c3cc(C(F)(F)F)ccc3C2=O)nc1` (single isomer, unassigned) [Example 237, N-(5-cyanopyrimidin-2-yl)-2-[(2′s,4r)-2′-fluoro-1-oxo-6-(trifluoromethyl)spiro[3H-isoquinoline-4,1′-cyclopropane]-2-yl]acetamide], the IC50 reads like this: under setting [3], less than 10000 nM; under setting [4], 61 nM.
On to `O=C(CN1CC2(CC2)c2cc(Br)ccc2C1=O)Nc1ccccc1OC(F)F` [Example 113, 2-(6-bromo-1-oxospiro[3H-isoquinoline-4,1′-cyclopropane]-2-yl)-N-[2-(difluoromethoxy)phenyl]acetamide], for which the IC50 is, setting by setting: under setting [1], less than 10000 nM; under setting [2], 4180 nM.
For `Cc1cccc(NC(=O)CN2CC3(CC3)c3cc(Br)ccc3C2=O)n1` [Example 114, 2-(6-bromo-1-oxospiro[3H-isoquinoline-4,1′-cyclopropane]-2-yl)-N-(6-methylpyridin-2-yl)acetamide], in that order: less than 10000 nM and 1990 nM.
On to `O=C(CN1CC2(CC2)c2cc([C@@]3(F)C[C@H]3F)ccc2C1=O)Nc1ncc(F)cn1` (single isomer, unassigned) [Example 253, 2-[6-[(1r,2s)-1,2-difluorocyclopropyl]-1-oxospiro[3H-isoquinoline-4,1′-cyclopropane]-2-yl]-N-(5-fluoropyrimidin-2-yl)acetamide], for which the IC50 runs as follows: under setting [1], less than 10000 nM; under setting [2], 597 nM.
As for `O=C(CN1CC2(CC2)c2cc(Br)ccc2C1=O)Nc1nc2n(n1)CCCC2` [Example 373, 2-(6-bromo-1-oxospiro[3H-isoquinoline-4,1′-cyclopropane]-2-yl)-N-(5,6,7,8-tetrahydro-[1,2,4]triazolo[1,5-a]pyridin-2-yl)acetamide], the IC50 under setting [2] was 1590 nM.
As to `O=C(CN1C[C@]2(C[C@H]2F)c2cc(Br)ccc2C1=O)Nc1ncc(Cl)cn1` [Example 110], the IC50 is less than 10000 nM under setting [1] and 12 nM under setting [2].
As for `Cc1cnc(NC(=O)CN2C[C@@]3(C[C@@H]3F)c3cc(C(F)(F)F)ccc3C2=O)nc1` (single isomer, unassigned) [Example 244, 2-[(2′s,4r)-2′-fluoro-1-oxo-6-(trifluoromethyl)spiro[3H-isoquinoline-4,1′-cyclopropane]-2-yl]-N-(5-methylpyrimidin-2-yl)acetamide], the IC50 runs as follows: under setting [1], less than 10000 nM; under setting [4], 75 nM.
For `N#Cc1ccc(NC(=O)CN2CC3(CC3)c3cc(Br)ccc3C2=O)nc1` [Example 72, 2-(6-bromo-1-oxospiro[3H-isoquinoline-4,1′-cyclopropane]-2-yl)-N-(5-cyanopyridin-2-yl)acetamide], the IC50 by setting is: under setting [1], less than 10000 nM; under setting [2], 511 nM.
For `O=C(CN1C[C@]2(C[C@H]2F)c2cc(Br)ccc2C1=O)Nc1nc2ccccn2n1` [Example 271], in that order: less than 10000 nM and 29 nM.
With `O=C(CN1CC2(CC2)c2cc(Br)ccc2C1=O)Nc1ncc2c(n1)COC2` [Example 213, 2-(6-bromo-1-oxospiro[3H-isoquinoline-4,1′-cyclopropane]-2-yl)-N-(5,7-dihydrofuro[3,4-d]pyrimidin-2-yl)acetamide], the IC50 was less than 10000 nM under setting [1] and 1340 nM under setting [2].
For the molecule `COc1ncnc(NC(=O)CN2CC3(CC3)c3cc(Br)ccc3C2=O)c1F` [Example 401, 2-(6-bromo-1-oxospiro[3H-isoquinoline-4,1′-cyclopropane]-2-yl)-N-(5-fluoro-6-methoxypyrimidin-4-yl)acetamide], the IC50 under setting [2] was 1890 nM.
Regarding `Cc1cnc(NC(=O)CN2C[C@]3(C[C@H]3F)c3cc(Br)ccc3C2=O)nc1` [Example 274], the IC50 is less than 10000 nM under setting [1] and 23 nM under setting [2].
`O=C(CN1C[C@]2(C[C@H]2F)c2cc(C3(F)CC3)ccc2C1=O)Nc1ncc(F)cn1` [Example 249]: the IC50 by setting is: under setting [1], less than 10000 nM; under setting [2], 15 nM.
On the same counts, the results for `CC1CC(NC(=O)CN2CC3(CC3)c3cc(Br)ccc3C2=O)C1` (stereo not drawn) [Example 52, 2-(6-bromo-1-oxo-spiro[3H-isoquinoline-4,1′-cyclopropane]-2-yl)-N-(3-methylcyclobutyl)acetamide] are less than 10000 nM and 2080 nM.
Consider `N#C[C@H]1C[C@@]12CN(CC(=O)Nc1ncc(F)cn1)C(=O)c1ccc(Br)cc12` (single isomer, unassigned) [Example 287, 2-[(2′s,4r)-6-bromo-2′-cyano-1-oxospiro[3H-isoquinoline-4,1′-cyclopropane]-2-yl]-N-(5-fluoropyrimidin-2-yl)acetamide], for which the IC50 under setting [3] is less than 10000 nM and the IC50 under setting [4] was 251 nM.
In the case of `O=C(CN1CC2(CC23CC3)c2cc(Br)ccc2C1=O)Nc1ncc(F)cn1` (stereo not drawn) [Example 81, N-(5-fluoropyrimidin-2-yl)-2-(6-bromo-1-oxospiro[3H-isoquinoline-4,1′-(spiro[2.2]pentan-1-yl)]-2-yl)acetamide], the IC50 is, setting by setting: under setting [1], less than 10000 nM; under setting [2], 2560 nM.
Consider `O=C(CN1CC2(CC2)c2cc([C@@]3(F)C[C@H]3C(F)(F)F)ccc2C1=O)Nc1ncc(F)cn1` [Example 404, N-(5-fluoropyrimidin-2-yl)-2-[6-[(1r,2r)-1-fluoro-2-(trifluoromethyl)cyclopropyl]-1-oxospiro[3H-isoquinoline-4,1′-cyclopropane]-2-yl]acetamide], for which the IC50 under setting [2] came out at 3890 nM.
For `O=C(CN1CC2(CC2)c2cc(I)ccc2C1=O)Nc1ncc(F)cn1` [Example 90, N-(5-fluoropyrimidin-2-yl)-2-(6-iodo-1-oxospiro[3H-isoquinoline-4,1′-cyclopropane]-2-yl)acetamide], the IC50 reads like this: under setting [1], less than 10000 nM; under setting [2], 34 nM.
On the same counts, the results for `O=C(CN1C[C@@]2(C[C@@H]2F)c2c(ccc(C3CC3)c2F)C1=O)Nc1ncc(F)cn1` (single isomer, unassigned) [Example 228, 2-[(2′s,4r)-6-cyclopropyl-2′,5-difluoro-1-oxospiro[3H-isoquinoline-4,1′-cyclopropane]-2-yl]-N-(5-fluoropyrimidin-2-yl)acetamide] are less than 10000 nM and 21 nM.
On the same counts, the results for `Cc1c[nH]c(=O)c(NC(=O)CN2CC3(CC3)c3cc(Br)ccc3C2=O)c1` [Example 154, 2-(6-bromo-1-oxospiro[3H-isoquinoline-4,1′-cyclopropane]-2-yl)-N-(5-methyl-2-oxo-1H-pyridin-3-yl)acetamide] are less than 10000 nM and 4330 nM.
For `O=C(CN1CC2(CC2)c2c(F)cccc2C1=O)Nc1ncc(F)cn1` [Example 42, 2-(5-fluoro-1-oxo-spiro[3H-isoquinoline-4,1′-cyclopropane]-2-yl)-N-(5-fluoropyrimidin-2-yl)acetamide], in that order: less than 10000 nM and 5240 nM.
Turning to `CC1(c2ccc3c(c2)C2(CC2)CN(CC(=O)Nc2ncc(F)cn2)C3=O)CC1` [Example 97, N-(5-fluoropyrimidin-2-yl)-2-[6-(1-methylcyclopropyl)-1-oxospiro[3H-isoquinoline-4,1′-cyclopropane]-2-yl]acetamide], the IC50 under setting [1] was less than 10000 nM and the IC50 under setting [2] turned out to be 1220 nM.
As to `O=C(CN1CC2(CCCC2)c2cc(Br)ccc2C1=O)Nc1ncccn1` [Example 75, 2-(6-bromo-1-oxo-spiro[3H-isoquinoline-4,1′-cyclopentane]-2-yl)-N-pyrimidin-2-yl-acetamide], the IC50 under setting [1] is 10000 to 15000 nM and the IC50 under setting [2] was determined as 12300 nM.
On to `O=C(CN1CC2(CC2)c2cc(Br)ccc2C1=O)Nc1nc2c(o1)CCCC2` [Example 386, 2-(6-bromo-1-oxospiro[3H-isoquinoline-4,1′-cyclopropane]-2-yl)-N-(4,5,6,7-tetrahydro-1,3-benzoxazol-2-yl)acetamide], for which, under setting [2], the IC50 worked out at 1450 nM.
For `C[C@@H]1[C@H](F)[C@]12CN(CC(=O)Nc1ncc(F)cn1)C(=O)c1ccc(Br)cc12` (single isomer, unassigned) [Example 277, 2-[(2′s,3′s,4r)-6-bromo-2′-fluoro-3′-methyl-1-oxospiro[3H-isoquinoline-4,1′-cyclopropane]-2-yl]-N-(5-fluoropyrimidin-2-yl)acetamide], the IC50 runs as follows: under setting [1], less than 10000 nM; under setting [4], 21 nM.
On to `N#Cc1cnc(NC(=O)CN2CC3(CC3)c3c(ccc(Br)c3F)C2=O)nc1` [Example 105, 2-(6-bromo-5-fluoro-1-oxospiro[3H-isoquinoline-4,1′-cyclopropane]-2-yl)-N-(5-cyanopyrimidin-2-yl)acetamide], for which the IC50 under setting [1] is less than 10000 nM and the IC50 under setting [2] stood at 119 nM.
For the molecule `O=C(CN1CC(C(F)F)c2c(ccc(Br)c2F)C1=O)Nc1ncc(F)cn1` (single isomer, unassigned) [Example 296, 2-[6-bromo-4-(difluoromethyl)-5-fluoro-1-oxo-3,4-dihydroisoquinolin-2-yl]-N-(5-fluoropyrimidin-2-yl)acetamide], the IC50 under setting [3] was less than 10000 nM and the IC50 under setting [4] is 345 nM.

For the origin of these results see patent US20230416205A1, “COMPOUNDS, COMPOSITIONS, AND METHODS” (Denali Therapeutics Inc, priority 2020, published 2023).
